Measurements reported in PubChem BioAssay (NCI).
“And” between values parts separate entries of the source, which are not always exact repeats. Identical values can stand only once.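 Tested at 5 concentrations; 48 h exposure; 96-well plates; endpoints linearly interpolated, else capped at highest concentration. GI50 is the concentration that inhibits growth by half. TGI denotes the concentration required for complete inhibition of growth.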

Legend:
Test in all cases: NCI tumour cell line growth inhibition, 48 h
SK-MEL-28 melanoma = test system: SK-MEL-28 melanoma
HCT-116 colon = test system: HCT-116 colon
ACHN renal = test system: ACHN renal
HT29 colon = test system: HT29 colon
CAKI-1 renal = test system: CAKI-1 renal
KM12 colon = test system: KM12 colon
HOP-62 NSCLC = test system: HOP-62 NSCLC
NCI/ADR-RES ovarian = test system: NCI/ADR-RES ovarian
RXF 393 renal = test system: RXF 393 renal
SF-268 CNS = test system: SF-268 CNS

| Compound | GI50 (SK-MEL-28 melanoma) | GI50 (HCT-116 colon) | TGI (HCT-116 colon) [µM] | TGI (ACHN renal) [µM] | GI50 (HT29 colon) | TGI (HT29 colon) [µM] | GI50 (CAKI-1 renal) | TGI (CAKI-1 renal) [µM] | GI50 (KM12 colon) | TGI (KM12 colon) [µM] | TGI (HOP-62 NSCLC) [µM] | GI50 (NCI/ADR-RES ovarian) [µM] | TGI (NCI/ADR-RES ovarian) [µM] | GI50 (RXF 393 renal) | TGI (RXF 393 renal) | GI50 (SF-268 CNS) | TGI (SF-268 CNS) [µM] | TGI (SK-MEL-28 melanoma) [µM] | GI50 (ACHN renal) [µM] | GI50 (HOP-62 NSCLC) [µM] |
| --- | --- | --- | --- | --- | --- | --- | --- | --- | --- | --- | --- | --- | --- | --- | --- | --- | --- | --- | --- | --- |
| Cc1cc(C(=O)NOCCO)c(Nc2ccc(I)cc2F)n(C)c1=O | 0.00227 µM and < 0.01 µM | 0.011 µM and 0.0164 µM | > 100 | > 100 | 0.00193 µM and < 0.01 µM | > 100 | 0.185 µM | > 100 | 0.0263 µM and < 0.0161 µM | > 100 | > 100 | > 90.6 | > 100 | 0.0915 µM and 0.199 µM | > 10 µM and 92.3 µM | > 100 µM | > 100 |  |  |  |
| Nc1nc(N)c2c(n1)NC(c1ccc(Cl)cc1)C1CCc3ccccc3C1=N2 (stereo unspecified) | 13.9 µM | 3.72 µM | 14.9 | 18.3 | 4.31 µM | 18 | 4.33 µM | 18.8 | 8.48 µM | 20.8 | 23.7 | 5.53 | 18.2 | 4.68 µM | 19.1 µM | 12.4 µM | 26.9 | 27.4 | 4.72 | 11.5 |
| OC(CBr)C(O)C(O)C(O)CBr (stereo unspecified) |  | 37.3 µM and > 100 µM | > 100 | > 100 |  | > 100 | 9.66 µM and 44.7 µM | > 100 |  | > 100 | > 100 | > 100 | > 100 |  | > 100 µM | > 40.6 µM and 19.3 µM | > 100 | > 100 |  |  |
| Nc1[nH]c(=S)[nH]c(=O)c1N=Nc1c(Br)cc(S(N)(=O)=O)cc1Br |  |  | > 100 | > 100 |  | > 100 |  | > 100 |  | > 100 | > 100 |  | > 100 |  | > 100 µM |  | > 100 | > 100 |  |  |
| CCN(Cc1c(F)cccc1C(F)(F)F)c1ccc(CO)c(Cl)c1 | 13.9 µM | < 0.0371 µM | 11.8 | 28.6 | 2.99 µM | 17.7 | 10.2 µM | 24.2 | 14.1 µM | 29.4 | 26.6 | 14.7 | 32.1 | 12.6 µM | 28.5 µM | 16.6 µM | 31.5 | 27.6 | 15 | 13.7 |
| O=C(Nc1ccn(C2CCC(COC(c3ccccc3)(c3ccccc3)c3ccccc3)O2)c(=O)n1)c1ccccc1 (stereo unspecified) |  |  | 11.9 | 9.74 |  | 6.09 |  | 13.4 |  | 14.6 | 16.3 |  | 8.73 |  | 11.1 µM |  | 17.4 | 16.9 |  |  |
| Cc1c(-c2c(F)cc(C(N)=O)c3[nH]c4c(c23)CC[C@H](C(C)(C)O)C4)cccc1-n1c(=O)c2cccc(F)c2n(C)c1=O | 4.59 µM | 2.66 µM | > 100 | > 100 | 0.864 µM | > 100 | 2.08 µM | > 100 | 0.399 µM | > 100 | > 100 | 3.58 | > 100 | 1.61 µM | 5.31 µM | 4.91 µM | > 100 | > 100 | 2.8 | 3.39 |
| CC(=O)OCc1cc[c]([Hg][Cl])o1 | 2.73 µM | 10.1 µM | 24.3 | 3.44 | 5.61 µM | 26.3 | 10.4 µM | 23.5 | 16.8 µM | 42.2 | 28.6 | 10.8 | 39.1 | 5.12 µM | 17.4 µM | 8.78 µM | 21.8 | 7.84 | 1.81 | 13.8 |
| N/C(=N/O)NOCCC(N)C(=O)O (stereo unspecified) | > 100 µM | > 100 µM | > 100 | > 100 | > 100 µM | > 100 | > 100 µM | > 100 | > 100 µM | > 100 | > 100 | > 100 | > 100 | > 100 µM | > 100 µM | > 100 µM | > 100 | > 100 | > 100 | > 100 |
| COc1ccc(CC2OC3(CCCCC3)CC3CCCCN32)cc1 (stereo unspecified) |  |  | > 100 | > 100 |  | > 100 |  | > 100 |  | > 100 | > 100 |  | > 100 |  | > 100 µM |  | > 100 | > 100 |  |  |
| NS(=O)(=O)c1ccc(NC(=O)Nc2cccc3ccccc23)cc1 |  |  | > 100 | > 100 |  | > 100 |  | > 100 |  | > 100 | > 100 |  | > 100 |  | > 100 µM |  | 39.3 | > 100 |  |  |
| Oc1ccc(Cl)cc1N=Nc1c(O)ccc2ccccc12 |  |  | > 100 | > 100 |  | > 100 |  | > 100 |  | > 100 | > 100 |  | > 100 |  | > 100 µM |  | > 100 | > 100 |  |  |
| O=C(Nc1c(Cl)cccc1Cl)Oc1cccc2cccnc12 | 7.28 µM | 3.69 µM | > 100 | > 100 | 19.4 µM | > 100 | 3.19 µM | 24.4 | 4.69 µM | 70.4 | 21 | 2.73 | 27.9 | 16.7 µM | > 100 µM | 5.46 µM | > 100 | 75.2 | 3.87 | 5.63 |
| COc1ccc(C2CC(=O)Nc3c2c(C)nn3-c2nc3ccccc3[nH]2)cc1OC (stereo unspecified) | 4.9 µM | 3.31 µM | 14.9 | 34.1 | 5.66 µM | 40 | 3.83 µM | 24.3 | 3.7 µM | 14.1 | 24.4 | 12 | > 100 | 2.19 µM | 5.69 µM | 5.07 µM | > 69.5 | > 100 | 4.45 | 4.32 |
| Fc1ccc(Nc2ccnc(N3CCN(c4ccnc5cc(Cl)ccc45)CC3)n2)cc1 | 3.27 µM | 1.97 µM | 5.24 | > 100 | 1.46 µM | 3.14 | 1.83 µM | 5.3 | 2.33 µM | 6.66 | 65.4 | 2.24 | 6.41 | 3.39 µM | 72.3 µM | 3.67 µM | 40.3 | 12.9 | 2.5 | 3.83 |
